The source of these data is US8993566B2, “Quinoline compound composing 1,2,4-triazine-dione and use thereof” (Wuhan Shengyun Biopharma Co., Ltd., priority 2012, dated 2015).

Assay [1] deals with human nonsmall-cell lung cancer cell H460. Kind of assay: In vitro anti-tumor cell activity (MTT), H460. The class given is cell-based. As to conditions: H460 cells, MTT, 72 h, Bliss method; for IC50: Homo sapiens, NCI-H460, read-out: H460 IC50. The protocol: (§1) The digested cell solution was poured into a centrifuge tube, to which a culture media was added to stop the digestion. The centrifuge tube was centrifuged at 800 r/min for 10 min, the supernatant was removed gently and then 5 mL of the culture media was added. The cells were pipetted and mixed homogeneously. 10 μL cell suspension was taken into a cell counting plate for counting, wherein the cell concentration was adjusted to 10^4 cells/well. To each well of a 96-well plate, except for A1 well as blank control, was added 100 μL of the cell suspension. The 96-well plate was placed in an incubator and cultivated for 24 h. […] The 96-well plate was placed in an incubator and cultivated for 72 h. (3) The culture media containing the compounds in the 96-well plate was removed, and the cells were washed with phosphate buffered solution (PBS) twice. To each well was added 100 μL MTT (tetrazole) (0.5 mg/mL), after placing the plate in an incubator to incubate for 4 h, the MTT solution was removed and 100 μL dimethyl sulfoxide was added. The reaction product of survival cells with MTT, i.e. formazan, was dissolved completely by oscillation on a magnetic oscillator, and then placed into a microplate reader to measure the results, and the IC50 values of compounds could be deduced by Bliss method.

For assay [2], the system named is human colon cancer cell HT-29. The experiment in a line: In vitro anti-tumor cell activity (MTT), HT-29. The class given is cell-based. Particulars: HT-29 cells, MTT, 72 h, Bliss method; for IC50: Homo sapiens, read-out: HT-29 IC50. As for the experimental part: as §1
Assay [3] has as its system human gastric cancer cell MKN-45. The experiment in a line: In vitro anti-tumor cell activity (MTT), MKN-45. Particulars: MKN-45 cells, MTT, 72 h, Bliss method; for IC50: Homo sapiens, read-out: MKN-45 IC50. The class given is cell-based. As for the experimental part:
as §1

Assay [4] concerns human hepatoma carcinoma cell line SMMC-7721. Kind of assay: In vitro anti-tumor cell activity (MTT), SMMC-7721. The format is cell-based. As to conditions: SMMC-7721 cells, MTT, 72 h, Bliss method; for IC50: Homo sapiens, read-out: SMMC-7721 IC50. As for the experimental part: as §1
Assay [5] deals with T1, c-Met kinase (His-tagged recombinant human Met (amino acids 974-end)) (Homo sapiens, UniProt P08581).
T1 construct: His-tagged recombinant human Met (amino acids 974-end); His
T1 sequence (P08581 956-1390): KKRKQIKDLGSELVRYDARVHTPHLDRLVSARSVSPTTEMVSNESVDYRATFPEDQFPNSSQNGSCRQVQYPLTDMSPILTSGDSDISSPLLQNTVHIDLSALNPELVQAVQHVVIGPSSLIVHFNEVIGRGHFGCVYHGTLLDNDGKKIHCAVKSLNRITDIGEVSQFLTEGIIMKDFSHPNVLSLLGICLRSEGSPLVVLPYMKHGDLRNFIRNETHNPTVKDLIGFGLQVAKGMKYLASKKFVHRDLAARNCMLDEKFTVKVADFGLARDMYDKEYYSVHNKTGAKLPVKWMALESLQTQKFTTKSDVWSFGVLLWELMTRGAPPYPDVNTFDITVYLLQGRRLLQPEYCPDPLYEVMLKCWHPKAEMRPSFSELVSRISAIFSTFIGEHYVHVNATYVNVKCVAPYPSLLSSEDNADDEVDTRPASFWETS
The experiment in a line: c-Met Enzyme Activity Inhibition Assay (ELISA). The format is biochemical. As to conditions: 50 pM c-Met, 5 μM ATP, room temperature 20 min; for IC50: read-out: IC50 for inhibiting c-Met kinase (converted). The protocol: c-Met Enzyme Activity Inhibition Assay
The assay for the determination of c-Met kinase activity is based on an enzyme linked immunosorbant assay (ELISA). A compound of Formula I, 50 pM c-Met (His-tagged recombinant human Met (amino acids 974-end), expressed by baculovirus), and 5 μM ATP in an assay buffer (25 mM MOPS, pH 7.4, 5 mM MgCl2, […], 100 μM sodium orthovanadate, 0.01% Triton X-100, 1 mM DTT, final DMSO concentration 1% (v/v)) were incubated on a plate coated with 0.25 mg/mL POT at room temperature for 20 min. The reaction mixture was removed by washing and the phosphorylated polymer substrate was detected with 0.2 μg/mL phosphotyrosine specific monoclonal antibody (PY20) conjugated to horseradish peroxidase (HRP). After the addition of 1M phosphoric acid to stop the development, the chromogenic substrate (TMB) color was quantitated by spectrophotometry at 450 nm.

As a reminder, the IC50 is the concentration that inhibits the measured activity by half.

Converted amounts (≈) assume the structure as drawn.

On to `COc1cc2c(Oc3ccc(NC(=O)c4nn(-c5ccc(F)c(F)c5)c(=O)n(C)c4=O)cc3F)ccnc2cc1OCCCN1CCCCC1` [Example 17, N-[3-fluoro-4-[6-methoxy-7-[3-(1-piperidinyl)propyloxy]quinolin-4-oxy]phenyl]-2-(3,4-difluorophenyl)-4-methyl-3,5-dioxo-2,3,4,5-tetrahydro-1,2,4-triazine-6-carboxamide], for which the IC50 in assay [1] was 0.22 µg/mL (≈ 0.319 µM); in assay [2] it was 0.3 µg/mL (≈ 0.434 µM); in assay [3] it was 0.027 µg/mL (≈ 0.0391 µM); in assay [4], 0.19 µg/mL (≈ 0.275 µM); in assay [5], 420 nM.
As to `COc1cc2c(Oc3ccc(NC(=O)c4nn(-c5ccc(F)c(F)c5)c(=O)n(C)c4=O)cc3F)ccnc2cc1OCCCN1CCOCC1` [Example 18, N-[3-fluoro-4-[6-methoxy-7-[3-(4-morpholinyl)propyloxy]quinolin-9-oxy]phenyl]-2-(3,4-difluorophenyl)-4-methyl-3,5-dioxo-2,3,4,5-tetrahydro-1,2,4-triazine-6-carboxamide], the “H460 IC50” value in assay [1] turned out to be 0.57 µg/mL. Further, in assay [2], the “HT-29 IC50” value was determined as 0.3 µg/mL. Also, the “MKN-45 IC50” value in assay [3] worked out at 0.0008 µg/mL. Also, the “SMMC-7721 IC50” value in assay [4] came out at 0.45 µg/mL. Moreover, the “IC50 for inhibiting c-Met kinase” value in assay [5] was 0.32 µg/mL.
On to `COc1cc2c(Oc3ccc(NC(=O)c4nn(-c5ccc(F)c(F)c5)c(=O)n(C)c4=O)cc3F)ccnc2cc1OCCCN1CCC(C)CC1` [Example 19, N-[3-fluoro-4-[6-methoxy-7-[3-(4-methylpiperidin-1-yl)propyloxy]quinolin-4-oxy]phenyl]-2-(3,4-difluorophenyl)-4-methyl-3,5-dioxo-2,3,4,5-tetrahydro-1,2,4-triazine-6-carboxamide], for which the IC50 was 1.1 µg/mL (≈ 1.56 µM) in assay [1]; 0.24 µg/mL (≈ 0.341 µM) in assay [2]; 0.23 µg/mL (≈ 0.326 µM) in assay [3]; 0.74 µg/mL (≈ 1.05 µM) in assay [4]; 766 nM in assay [5].
In the same order, the values of `COc1cc2c(Oc3ccc(NC(=O)c4nn(-c5ccc(F)c(F)c5)c(=O)n(C)c4=O)cc3F)ccnc2cc1OCCCN1CCN(C)CC1` [Example 20, N-[3-fluoro-4-[6-methoxy-7-[3-(4-methyl-1-piperazinyl)propyloxy]quinolin-4-oxy]phenyl]-2-(3,4-difluorophenyl)-4-methyl-3,5-dioxo-2,3,4,5-tetrahydro-1,2,4-triazine-6-carboxamide] are 0.28 µg/mL (≈ 0.397 µM), 0.14 µg/mL (≈ 0.198 µM), 0.009 µg/mL (≈ 0.0128 µM), 0.11 µg/mL (≈ 0.156 µM) and 241 nM.
With `COc1cc2c(Oc3ccc(NC(=O)c4nn(-c5ccc(Cl)cc5)c(=O)n(C)c4=O)cc3F)ccnc2cc1OCCCN1CCCCC1` [Example 26, N-[3-fluoro-4-[6-methoxy-7-[3-(1-piperidinyl)propyloxy]quinolin-4-oxy]phenyl]-2-(4-chlorophenyl)-4-methyl-3,5-dioxa-2,3,4,5-tetrahydro-1,2,4-triazine-6-carboxamide;], the “H460 IC50” value in assay [1] came out at 0.15 µg/mL. For the same compound, in assay [2], the “HT-29 IC50” value is 0.08 µg/mL. For the same compound, the “MKN-45 IC50” value in assay [3] was determined as 0.011 µg/mL. The “SMMC-7721 IC50” value in assay [4] was 0.33 µg/mL. In addition, the “IC50 for inhibiting c-Met kinase” value in assay [5] worked out at 0.71 µg/mL.
On to `COc1cc2c(Oc3ccc(NC(=O)c4nn(-c5ccc(Cl)cc5)c(=O)n(C)c4=O)cc3F)ccnc2cc1OCCCN1CCOCC1` [Example 27, N-[3-fluoro-4-[6-methoxy-7-[3-(4-morpholinyl)propyloxy]quinolin-4-oxy]phenyl]-2-(4-chlorophenyl)-4-methyl-3,5-dioxo-2,3,4,5-tetrahydro-1,2,4-triazine-6-carboxamide], for which the IC50 in assay [1] is 0.23 µg/mL (≈ 0.333 µM); in assay [2], 0.18 µg/mL (≈ 0.26 µM); in assay [3], 0.0053 µg/mL (≈ 0.00767 µM); in assay [4] it was 0.58 µg/mL (≈ 0.839 µM); in assay [5], 59.3 nM.
For the compound `C=CCn1c(=O)c(C(=O)Nc2ccc(Oc3ccnc4cc(OCCCN5CCCC5)c(OC)cc34)c(F)c2)nn(-c2ccc(Cl)cc2)c1=O` [Example 38], the “H460 IC50” value in assay [1] was 1.4 µg/mL. The “HT-29 IC50” value in assay [2] stood at 0.54 µg/mL. For the same compound, in assay [3], the “MKN-45 IC50” value worked out at 0.62 µg/mL. In assay [4], the “SMMC-7721 IC50” value is 1.8 µg/mL. For the same compound, the “IC50 for inhibiting c-Met kinase” value in assay [5] is 2.76 µg/mL.
The like results for `C=CCn1c(=O)c(C(=O)Nc2ccc(Oc3ccnc4cc(OCCCN5CCOCC5)c(OC)cc34)c(F)c2)nn(-c2ccc(Br)cc2)c1=O` [Example 39] were, in that order, 1.4 µg/mL, 0.83 µg/mL, 0.19 µg/mL, 2.1 µg/mL and 1.8 µg/mL.
For the compound “N-[3-fluoro-4-[6-methoxy-7-(3-(4-methyl-1-piperazinyl)propyloxy)quinolin-4-oxy]phenyl]-2-(3-trifluoromethylphenyl)-4-methyl-3,5-dicarbamoyl-2,3,4,5-tetrahydro-1,2,4-triazine-6-carboxamide [Example 25]”, the “H460 IC50” value in assay [1] was determined as 0.52 µg/mL. For the same compound, the “HT-29 IC50” value in assay [2] stood at 0.05 µg/mL. In addition, the “MKN-45 IC50” value in assay [3] was found to be 0.014 µg/mL. Besides, in assay [4], the “SMMC-7721 IC50” value was 0.07 µg/mL. The “IC50 for inhibiting c-Met kinase” value in assay [5] is 1.01 µg/mL.
In the case of “N-[3-fluoro-4-[6-methoxy-7-[3-(1-piperidinyl)propyloxy]quinolin-4-oxy]phenyl]-2-(3-trifluoromethylphenyl)-4-methyl-3,5-dicarbonyl-2,3,4,5-tetrahydro-1,2,4-triazine-6-carboxamide [Example 22]”, the “H460 IC50” value in assay [1] stood at 0.26 µg/mL. For the same compound, the “HT-29 IC50” value in assay [2] turned out to be 0.12 µg/mL. Besides, in assay [3], the “MKN-45 IC50” value was 0.006 µg/mL. The “SMMC-7721 IC50” value in assay [4] is 0.18 µg/mL. Moreover, the “IC50 for inhibiting c-Met kinase” value in assay [5] amounted to 0.57 µg/mL.
The like results for “N-[3-fluoro-4-[6-methoxy-7-[3-(1-piperidinyl)propyloxy]quinolin-4-oxy]phenyl]-2-phenyl-4-methyl-3,5-dioxo-2,3,4,5-tetrahydro-1,2,4-triazine-6-carboxamide [Example 2]” were, in that order, 0.072 µg/mL, 0.18 µg/mL, 0.032 µg/mL, 0.20 µg/mL and 0.12 µg/mL.
“N-[3-fluoro-4-[6-methoxy-7-[3-(1-piperidinyl)propyloxy]quinolin]-4-oxy]phenyl]-2-(2,4-difluorophenyl)-4-benzyl-3,5-dicarbonyl-2,3,4,5-tetrahydro-1,2,4-triazine-6-carboxamide [Example 44]”: in assay [1], the “H460 IC50” value is 0.99 µg/mL. Further, the “HT-29 IC50” value in assay [2] was 0.57 µg/mL. Further, the “MKN-45 IC50” value in assay [3] amounted to 0.13 µg/mL. Moreover, the “SMMC-7721 IC50” value in assay [4] is 2.5 µg/mL. The “IC50 for inhibiting c-Met kinase” value in assay [5] is 6.1 µg/mL.
As for “N-[3-fluoro-4-[6-methoxy-7-[3-(1-piperidinyl)propyloxy]quinolin]-4-oxy]phenyl]-2-(2-fluorophenyl)-4-allyl-3,5-dicarbonyl-2,3,4,5-tetrahydro-1,2,4-triazine-6-carboxamide [Example 40]”, the “H460 IC50” value in assay [1] was 1.0 µg/mL. In addition, in assay [2], the “HT-29 IC50” value is 0.26 µg/mL. For the same compound, the “MKN-45 IC50” value in assay [3] was determined as 0.05 µg/mL. Further, the “SMMC-7721 IC50” value in assay [4] came to 3.1 µg/mL. Further, the “IC50 for inhibiting c-Met kinase” value in assay [5] turned out to be 5.1 µg/mL.
“N-[3-fluoro-4-[6-methoxy-7-[3-(1-pyrrolidyl)propyloxy]quinolin-4-oxy]phenyl]-2-(3-trifluoromethylphenyl)-4-methyl-3,5-dicarbonyl-2,3,4,5-tetrahydro-1,2,4-triazine-6-carboxamide [Example 21]”: the “H460 IC50” value in assay [1] stood at 0.24 µg/mL. Besides, in assay [2], the “HT-29 IC50” value came out at 0.13 µg/mL. Further, the “MKN-45 IC50” value in assay [3] worked out at 0.0002 µg/mL. The “SMMC-7721 IC50” value in assay [4] stood at 0.32 µg/mL. For the same compound, the “IC50 for inhibiting c-Met kinase” value in assay [5] turned out to be 0.13 µg/mL.
